This assay relates to DISC1, neural progenitors derived from control subjects. The assay is described as follows: DISC1 protein level in control iPS-derived neural progenitors, western blot. The format is cell-based, human. The settings on record: MG132 10 µM, day 18, up to 3 hours, n=2, western blot. An excerpt: All iPS derived neural progenitors were provided by Pfizer Neuroscience (Cambridge, MA, USA). The iPS cell lines D2 and D3 and family control cell line C1 were generated using a non-integrated approach by Dr Hongjun Song at Johns Hopkins University and cultured as described previously.[8] The Detroit iPS cell line was generated by Dr S. Engle at Pfizer Neuroscience. Detroit 551 fibroblasts were obtained from ATCC (CCL-110) and maintained in Knockout DMEM (Life Technologies 10829-018), 15% FBS (Life Technologies), 1x Non-essential amino acids (Life Technologies 11140-050), 2 mM L-glutamine (Life Technologies 25030-081), 1x Gentamicin (Life Technologies 15710-072), 0.1 mM β-mercaptoethanol (Sigma M-7522). The cells were reprogrammed with individual lentiviruses expressing c-MYC, KLF4, SOX2, OCT3/4, NANOG, and LIN28. One colony, Detroit 551-3, with ES-like morphology, high expression of pluripotency markers (for example, OCT3/4, TRA-1-60, TRA-1-81, SSEA4), a normal karyotype, […] the ability to form all three germ layers in a teratoma assay was used in all subsequent experiments. […]

The structures appear in SMILES notation. Residues, ends and D or L forms follow the SMILES beside them. *: point of attachment. Cbz = O=C(OCc1ccccc1)*

Regarding `CC(C)C[C@@H](C=O)NC(=O)[C@H](CC(C)C)NC(=O)[C@H](CC(C)C)NC(=O)OCc1ccccc1` [MG132] (Cbz-Leu-Leu-Leu-aldehyde), the “DISC1 protein level in NPs from Detroit (control) iPS cells, proteasomal inhibition” value is listed as “stabilization of DISC1 protein levels within first 30 min up to 3 hours”.

These data come from article PMC5984089, “FBXW7 regulates DISC1 stability via the ubiquitin-proteosome system” (Molecular Psychiatry, 2017).
